Reference: ChEMBL document CHEMBL1201862, “PubChem BioAssay data set” (2004)
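In this assay, cells in 96-well plates receive the compound at five concentrations for 48 hours. Endpoints are linearly interpolated between the surrounding concentrations. Here, GI50 denotes the concentration required for 50% inhibition of growth.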 The source made the active and inactive calls. Rule as the data show it: active = GI50 up to about 1.1 µM and inactive = higher.

How the values were obtained:
Experiment in all cases: growth of human tumour cells (NCI), 48 h
[1] = tested on: OVCAR-4
[2] = tested on: DMS-114
[3] = tested on: A549
[4] = tested on: RPMI-8226
[5] = tested on: SK-MEL-2
[6] = tested on: COLO 205
[7] = tested on: UO-31
[8] = tested on: HCT-116
[9] = tested on: DMS-273
[10] = tested on: HOP-18
[11] = tested on: SNB-19
[12] = tested on: SF-539
[13] = tested on: UACC-62
[14] = tested on: OVCAR-3
[15] = tested on: A498
[16] = tested on: KM-20L2
[17] = tested on: SN12C
[18] = tested on: HL-60
[19] = tested on: UACC-257
[20] = tested on: OVCAR-5
[21] = tested on: CCRF-CEM
[22] = tested on: HT-29
[23] = tested on: MOLT-4
[24] = tested on: SW-620
[25] = tested on: IGROV-1
[26] = tested on: TK-10
[27] = tested on: K562
[28] = tested on: NCI-H226
[29] = tested on: SF-268
[30] = tested on: ACHN
[31] = tested on: SR
[32] = tested on: SNB-78
[33] = tested on: SK-OV-3
[34] = tested on: KM12
[35] = tested on: LOX IMVI
[36] = tested on: U-251
[37] = tested on: XF498
[38] = tested on: DLD-1
[39] = tested on: NCI-H522
[40] = tested on: 786-0
[41] = tested on: HOP-62
[42] = tested on: M14
[43] = tested on: NCI-H23
[44] = tested on: EKVX
[45] = tested on: HCC 2998
[46] = tested on: M19-MEL
[47] = tested on: HOP-92
[48] = tested on: NCI-H460
[49] = tested on: SNB-75
[50] = tested on: SK-MEL-28
[51] = tested on: HCT-15
[52] = tested on: CAKI-1
[53] = tested on: SK-MEL-5
[54] = tested on: OVCAR-8
[55] = tested on: Malme-3M
[56] = tested on: SF-295

Compound: Ic1ncnc2c1ncn2C1CCCO1 (stereo unspecified)
- GI50 [1]: > 100 µM (inactive)
- GI50 [2]: > 100 µM (inactive)
- GI50 [3]: > 100 µM (inactive)
- GI50 [4]: > 100 µM (inactive)
- GI50 [5]: > 100 µM (inactive)
- GI50 [6]: > 100 µM (inactive)
- GI50 [7]: > 100 µM (inactive)
- GI50 [8]: > 100 µM (inactive)
- GI50 [9]: > 100 µM (inactive)
- GI50 [10]: > 100 µM (inactive)
- GI50 [11]: > 100 µM (inactive)
- GI50 [12]: > 100 µM (inactive)
- GI50 [13]: > 100 µM (inactive)
- GI50 [14]: > 100 µM (inactive)
- GI50 [15]: > 100 µM (inactive)
- GI50 [16]: > 100 µM (inactive)
- GI50 [17]: > 100 µM (inactive)
- GI50 [18]: > 100 µM (inactive)
- GI50 [19]: > 100 µM (inactive)
- GI50 [20]: > 100 µM (inactive)
- GI50 [21]: > 100 µM (inactive)
- GI50 [22]: > 100 µM (inactive)
- GI50 [23]: > 100 µM (inactive)
- GI50 [24]: > 100 µM (inactive)
- GI50 [25]: > 100 µM (inactive)
- GI50 [26]: > 100 µM (inactive)
- GI50 [27]: > 100 µM (inactive)
- GI50 [28]: > 100 µM (inactive)
- GI50 [29]: > 100 µM (inactive)
- GI50 [30]: > 100 µM (inactive)
- GI50 [31]: > 100 µM (inactive)
- GI50 [32]: > 100 µM (inactive)
- GI50 [33]: > 100 µM (inactive)
- GI50 [34]: > 100 µM (inactive)
- GI50 [35]: > 100 µM (inactive)
- GI50 [36]: > 100 µM (inactive)
- GI50 [37]: > 100 µM (inactive)
- GI50 [38]: > 100 µM (inactive)
- GI50 [39]: > 100 µM (inactive)
- GI50 [40]: > 100 µM (inactive)
- GI50 [41]: > 100 µM (inactive)
- GI50 [42]: > 100 µM (inactive)
- GI50 [43]: > 100 µM (inactive)
- GI50 [44]: > 100 µM (inactive)
- GI50 [45]: > 100 µM (inactive)
- GI50 [46]: > 100 µM (inactive)
- GI50 [47]: > 100 µM (inactive)
- GI50 [48]: > 100 µM (inactive)
- GI50 [49]: 35.8 µM (inactive)
- GI50 [50]: > 100 µM (inactive)
- GI50 [51]: > 100 µM
- GI50 [52]: > 100 µM (inactive)
- GI50 [53]: > 100 µM (inactive)
- GI50 [54]: > 100 µM (inactive)
- GI50 [55]: > 100 µM (inactive)
- GI50 [56]: > 100 µM (inactive)
